Results taken from patent EP2910557A1, “Enantiopure tetrasubstituted pyrrolidines as scaffolds for proteasome inhibitors and medicinal applications thereof” (Ikerchem, S.L., priority 2014, dated 2015).

Columns and labels:
Assay in all cases: Cancer cell growth inhibition, 72 h treatment
Format in all cases: cell-based
BxPC-3 = details: Homo sapiens, Pancreatic cancer BxPC-3, Hexosaminidase assay (*)
Experimental: (§1) Cell culture-based assays were used to evaluate the ability of compounds of the invention to inhibit cancer cell growth.
(§2) Cells were obtained from the American Type Culture Collection (ATCC) and the European Collection of Cell Cultures. Cells were thawed in their appropriate media plus supplements (see table below). Cells were passaged at confluence by washing once in HBSS cation-free followed by a 3 minutes incubation with trypsin ([0.5 µg/ml]/EDTA [0.2 µg/ml]) (Gibco-BRL, 15400054) solution in HBSS at 37°C (except non-adherent cell lines - hematologic), and transferred to their appropriate media plus supplements. Prior to seeding at defined cell concentration, cells were recovered in medium, centrifuged, taken up in medium and counted.
(§3) All treatments were performed in triplicate. Experiments were carried out in 96-well cell culture plates (Cultek) and the cell lines seeded at the density mentioned in the table above and cultured at 37°C with 5% CO2. After 24h, media were supplemented by 100 µl/well of diluted test compound at variable final concentrations and incubated for 72 hours. Then, AlamarBlue® Reagent (Biosource DAL1100) was added to each well and incubated at 37°C for 4 hours. Relative fluorescent intensity that correlates with the number of living cells was read in a Cytofluor plate reader (Millipore) at 535/590 nm (Excitation/emission). After reading the AlamarBlue® signal, the hexosaminidase activitity was measured according to the following protocol: medium was removed and cells were washed once with PBS. 60 µl of substrate solution (p-nitrophenol-N-acetyl-beta-D-glucosaminide 7.5 mM [Sigma N-9376], sodium citrate 0.1 M, pH 5.0, 0.25% Triton X-1 00) was added to each well and incubated at 37°C for 1-2 hours; after this incubation time, a bright yellow colour appears; then, plates could be developed by adding 90 µl of developer solution (Glycine 50 mM, pH 10.4; EDTA 5 mM), and absorbance was recorded at 405 nm.
(§4) Note: In all cases assays were performed in Alamar Blue with the exception of those indicated (* = Hexosaminidase assay)

NCI-H1975 = details: Homo sapiens, Lung cancer NCI-H1975, Hexosaminidase assay (*)
Experimental: as §1, §2, §3, §4

HeLa = details: Homo sapiens, Cervical HeLa, Alamar Blue
Experimental: as §1, §2, §3, §4

LNCaP = details: Homo sapiens, Prostate cancer LNCaP, Alamar Blue
Experimental: as §1, §2, §3, §4

RPMI-8226 = details: Homo sapiens, Multiple mieloma RPMI-8226, Alamar Blue
Experimental: as §1, §2, §3, §4

NCI-H358 = details: Homo sapiens, Lung cancer NCI-H358, Alamar Blue
Experimental: as §1, §2, §3, §4

SW480 = details: Homo sapiens, Colon cancer SW480, Hexosaminidase assay (*)
Experimental: as §1, §2, §3, §4

HepG2 = details: Homo sapiens, Liver cancer HepG2, Alamar Blue
Experimental: as §1, §2, §3, §4

LS174T = details: Homo sapiens, Colon cancer LS174T, Alamar Blue
Experimental: as §1, §2, §3, §4

CCRF-CEM = details: Homo sapiens, Hematologic CCRF-CEM, Alamar Blue
Experimental: as §1, §2, §3, §4

MDA-MB-468 = details: Homo sapiens, Breast cancer MDA-MB-468, Alamar Blue
Experimental: as §1, §2, §3, §4

U-373 MG = details: Homo sapiens, U373 MG, Brain U-373 MG, Hexosaminidase assay (*)
Experimental: as §1, §2, §3, §4

143b = details: Homo sapiens, Osteosarcoma 143b, Alamar Blue
Experimental: as §1, §2, §3, §4

NCI-H1650 = details: Homo sapiens, Lung cancer NCI-H1650, Hexosaminidase assay (*)
Experimental: as §1, §2, §3, §4

OVCAR-3 = details: Homo sapiens, Ovarian cancer OVCAR-3, Hexosaminidase assay (*)
Experimental: as §1, §2, §3, §4

K562 = details: Homo sapiens, Hematologic K562, Alamar Blue
Experimental: as §1, §2, §3, §4

PC-3 = details: Homo sapiens, Prostate cancer PC-3, Alamar Blue
Experimental: as §1, §2, §3, §4

HCT-116 = details: Homo sapiens, Colon cancer HCT-116, Alamar Blue
Experimental: as §1, §2, §3, §4

HT-1080 = details: Homo sapiens
Experimental: as §1, §2, §3, §4

LoVo = details: Homo sapiens, Colon cancer LoVo, Alamar Blue
Experimental: as §1, §2, §3, §4

DU-145 = details: Homo sapiens, Prostate cancer DU-145, Alamar Blue
Experimental: as §1, §2, §3, §4

RCC 786-O = details: Homo sapiens, 786-0, Renal RCC 786-O, Alamar Blue
Experimental: as §1, §2, §3, §4

A431 = details: Homo sapiens
Experimental: as §1, §2, §3, §4

T47D = details: Homo sapiens, Breast cancer T47D
Experimental: as §1, §2, §3, §4

A549 = details: Homo sapiens, Lung cancer A549, Hexosaminidase assay (*)
Experimental: as §1, §2, §3, §4

HT-29 = details: Homo sapiens, Colon cancer HT-29, Alamar Blue
Experimental: as §1, §2, §3, §4

SK-OV-3 = details: Homo sapiens, Ovarian cancer SK-OV-3, Alamar Blue
Experimental: as §1, §2, §3, §4

COLO 205 = details: Homo sapiens, Colon cancer COLO 205, Alamar Blue
Experimental: as §1, §2, §3, §4

SK-HEP-1 = details: Homo sapiens, SK-HEP1, Liver cancer SK-HEP-1, Alamar Blue
Experimental: as §1, §2, §3, §4

U-87 MG = details: Homo sapiens, Brain U-87 MG, Hexosaminidase assay (*)
Experimental: as §1, §2, §3, §4

MDA-MB-231 = details: Homo sapiens, Breast cancer MDA-MB-231, Alamar Blue
Experimental: as §1, §2, §3, §4

Row | EC50 (BxPC-3) | EC50 (NCI-H1975) | EC50 (HeLa) | EC50 (LNCaP) | EC50 (RPMI-8226) | EC50 (NCI-H358) | EC50 (SW480) | EC50 (HepG2) | EC50 (LS174T) | EC50 (CCRF-CEM) | EC50 (MDA-MB-468) | EC50 (U-373 MG) | EC50 (143b) | EC50 (NCI-H1650) | EC50 (OVCAR-3) | EC50 (K562) | EC50 (PC-3) | EC50 (HCT-116) | EC50 (LoVo) | EC50 (DU-145) | SMILES | also measured
1 | 1500 nM | 1100 nM | 13000 nM | 380 nM | 60 nM | 700 nM | 2300 nM | 560 nM | 140 nM | 170 nM | 320 nM | 2800 nM | 290 nM | 1800 nM | 860 nM | 1200 nM | 1200 nM | 640 nM | 2500 nM | 910 nM | CC(C)C[C@H](NC(=O)[C@@H]1N[C@H](c2ccccc2)[C@@H]([N+](=O)[O-])[C@@H]1c1cccs1)B(O)O [Example 10, (R)-3-methyl-1-((2R,3R,4S,5R)-4-nitro-5-phenyl-3-(thiophen-2-yl)pyrrolidine-2-carboxamido)butylboronic acid] | EC50 (HT-1080; Fibrosarcoma HT-1080, Alamar Blue): 1400 nM; EC50 (RCC 786-O): 430 nM; EC50 (A431; A-431, Epidermoid A431, Hexosaminidase assay (*)): 30 nM; EC50 (T47D; Alamar Blue): 570 nM; EC50 (A549): 2600 nM; EC50 (HT-29): 3500 nM; EC50 (SK-OV-3): 1300 nM; EC50 (COLO 205): 310 nM; EC50 (SK-HEP-1): 490 nM; EC50 (U-87 MG): 500 nM; EC50 (MDA-MB-231): 2800 nM
2 | 5800 nM | 7300 nM | 54000 nM | 1800 nM | 1300 nM | 3300 nM | 13000 nM | 3100 nM | 600 nM | 630 nM | 2200 nM | 17000 nM | 1900 nM | 12000 nM | 2200 nM | 15000 nM | 7100 nM | 2200 nM | 15000 nM | 3500 nM | CC(C)C[C@H](NC(=O)[C@@H]1N[C@H](c2ccccc2)[C@@H]([N+](=O)[O-])[C@@H]1c1ccc(F)cc1)B(O)O [Example 6, (R)-1-((2R,3R,4S,5R)-3-(4-fluorophenyl)-4-nitro-5-phenylpyrrolidine-2-carboxamido)-3-methylbutylboronic acid] | EC50 (HT-1080; Fibrosarcoma HT-1080, Hexosaminidase assay (*)): 16000 nM; EC50 (RCC 786-O): 12000 nM; EC50 (A431; A-431, Epidermoid A431, Alamar Blue): 100 nM; EC50 (T47D; Hexosaminidase assay (*)): 21000 nM; EC50 (A549): 12000 nM; EC50 (HT-29): 27000 nM; EC50 (SK-OV-3): 13000 nM; EC50 (COLO 205): 2400 nM; EC50 (SK-HEP-1): 1900 nM; EC50 (U-87 MG): 12000 nM; EC50 (MDA-MB-231): 11000 nM
